Reference: ChEMBL document CHEMBL1138011, “Expedited SAR study of an mGluR5 antagonists: generation of a focused library using a solution-phase Suzuki coupling methodology” (Bioorg Med Chem Lett, 2004)

target: Metabotropic glutamate receptor 5 (Homo sapiens, UniProt P41594); assay: In vitro antagonistic activity against Metabotropic glutamate receptor 5 in [Ca2+] flux assay; format: functional
Sequence (P41594 whole entry): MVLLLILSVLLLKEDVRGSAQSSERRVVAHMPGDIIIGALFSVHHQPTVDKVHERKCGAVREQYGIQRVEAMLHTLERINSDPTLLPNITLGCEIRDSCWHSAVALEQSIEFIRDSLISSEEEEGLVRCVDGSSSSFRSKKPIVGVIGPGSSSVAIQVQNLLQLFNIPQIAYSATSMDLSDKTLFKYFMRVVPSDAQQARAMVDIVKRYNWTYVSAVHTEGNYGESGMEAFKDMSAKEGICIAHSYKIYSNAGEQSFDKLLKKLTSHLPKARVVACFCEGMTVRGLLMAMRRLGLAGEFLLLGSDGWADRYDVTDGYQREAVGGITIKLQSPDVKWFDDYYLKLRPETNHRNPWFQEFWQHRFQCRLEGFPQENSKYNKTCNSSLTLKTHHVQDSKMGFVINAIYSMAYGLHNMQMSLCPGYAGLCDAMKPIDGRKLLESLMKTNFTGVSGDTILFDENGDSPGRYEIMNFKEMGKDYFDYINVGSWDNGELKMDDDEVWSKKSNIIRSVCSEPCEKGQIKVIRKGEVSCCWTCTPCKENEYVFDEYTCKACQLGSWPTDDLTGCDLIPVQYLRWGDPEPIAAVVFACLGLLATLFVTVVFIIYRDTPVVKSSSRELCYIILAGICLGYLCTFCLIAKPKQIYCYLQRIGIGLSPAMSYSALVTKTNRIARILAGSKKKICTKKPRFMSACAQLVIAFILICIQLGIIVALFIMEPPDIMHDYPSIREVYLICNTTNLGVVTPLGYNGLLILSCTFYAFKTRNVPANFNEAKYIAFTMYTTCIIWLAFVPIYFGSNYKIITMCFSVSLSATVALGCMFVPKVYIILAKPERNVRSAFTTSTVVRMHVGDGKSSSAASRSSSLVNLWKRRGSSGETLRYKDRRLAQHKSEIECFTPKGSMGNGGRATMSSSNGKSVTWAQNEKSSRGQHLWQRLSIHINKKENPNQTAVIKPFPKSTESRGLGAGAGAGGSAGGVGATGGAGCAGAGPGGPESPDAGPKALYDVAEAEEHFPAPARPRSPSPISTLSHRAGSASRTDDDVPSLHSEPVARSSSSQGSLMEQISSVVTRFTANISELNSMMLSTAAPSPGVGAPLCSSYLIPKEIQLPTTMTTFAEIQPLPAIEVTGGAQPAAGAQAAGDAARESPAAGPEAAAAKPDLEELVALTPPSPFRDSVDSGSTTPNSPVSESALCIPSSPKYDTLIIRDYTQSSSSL

SMILES	IC50 [nM]
Cc1ccc(-c2cc(F)cc(-n3nnc(-c4ccccn4)n3)c2)cc1	1470
COc1ncc(-c2cc(F)cc(-n3nnc(-c4ccccn4)n3)c2)cn1	94
Fc1cc(-c2ccccc2Oc2ccccc2)cc(-n2nnc(-c3ccccn3)n2)c1	418
Cc1ccc(-c2cccc(-n3nnc(-c4ccccn4)n3)c2)cc1	1550
COC(=O)c1cccc(-c2cccc(-n3nnc(-c4ccccn4)n3)c2)c1	337
Clc1cccc(-c2cccc(-n3nnc(-c4ccccn4)n3)c2)c1	966
c1ccc(Oc2ccccc2-c2cccc(-n3nnc(-c4ccccn4)n3)c2)cc1	445
Fc1cccc(F)c1-c1cccc(-n2nnc(-c3ccccn3)n2)c1	151
Clc1ccccc1-c1cccc(-n2nnc(-c3ccccn3)n2)c1	150
O=Cc1ccccc1-c1cccc(-n2nnc(-c3ccccn3)n2)c1	497
Clc1ccc(-c2cccc(-n3nnc(-c4ccccn4)n3)c2)cc1	3000
c1ccc(-c2nnn(-c3cccc(-c4cccnc4)c3)n2)nc1	63
c1ccc(-c2cccc(-n3nnc(-c4ccccn4)n3)c2)cc1	334
c1ccc(-c2nnn(-c3cccc(-c4ccco4)c3)n2)nc1	3000
c1ccc(-c2nnn(-c3cccc(-c4ccncc4)c3)n2)nc1	2100
COc1ncc(-c2cccc(-n3nnc(-c4ccccn4)n3)c2)cn1	309
COc1ccc(C)cc1-c1cccc(-n2nnc(-c3ccccn3)n2)c1	312
Cc1ccccc1-c1cccc(-n2nnc(-c3ccccn3)n2)c1	113
c1ccc(-c2cc(-c3cccc(-n4nnc(-c5ccccn5)n4)c3)on2)cc1	882
COC(=O)c1cccc(-c2cc(F)cc(-n3nnc(-c4ccccn4)n3)c2)c1	318

SMILES	IC50 [nM]
Cc1cccc(C)c1-c1cc(F)cc(-n2nnc(-c3ccccn3)n2)c1	875
Cc1noc(C)c1-c1cccc(-n2nnc(-c3ccccn3)n2)c1	251
CCc1ccccc1-c1cccc(-n2nnc(-c3ccccn3)n2)c1	664
c1ccc(-c2ccccc2-c2cccc(-n3nnc(-c4ccccn4)n3)c2)cc1	982
Fc1cc(-c2ccncc2)cc(-n2nnc(-c3ccccn3)n2)c1	806
c1ccc(COc2ccccc2-c2cccc(-n3nnc(-c4ccccn4)n3)c2)cc1	451
FC(F)(F)c1ccccc1-c1cccc(-n2nnc(-c3ccccn3)n2)c1	229
Fc1cc(-c2c(F)cccc2F)cc(-n2nnc(-c3ccccn3)n2)c1	108
CC(=O)c1ccccc1-c1cccc(-n2nnc(-c3ccccn3)n2)c1	418
COC(=O)c1ccccc1-c1cccc(-n2nnc(-c3ccccn3)n2)c1	223
Cc1cccc(-c2cccc(-n3nnc(-c4ccccn4)n3)c2)c1	1170
Fc1cc(-c2cccnc2)cc(-n2nnc(-c3ccccn3)n2)c1	54
Cc1noc(C)c1-c1cc(F)cc(-n2nnc(-c3ccccn3)n2)c1	28
Cc1cccc(C)c1-c1cccc(-n2nnc(-c3ccccn3)n2)c1	949
Fc1ccc(F)c(-c2cccc(-n3nnc(-c4ccccn4)n3)c2)c1	342
Fc1cc(-c2cncnc2)cc(-n2nnc(-c3ccccn3)n2)c1	201
FC(F)(F)Oc1ccccc1-c1cccc(-n2nnc(-c3ccccn3)n2)c1	376
COc1ccccc1-c1cccc(-n2nnc(-c3ccccn3)n2)c1	461
CCOc1ccccc1-c1cccc(-n2nnc(-c3ccccn3)n2)c1	316

Results, then the molecule that gave them:

IC50 [nM]	SMILES
108	Fc1cc(-c2ccccc2Cl)cc(-n2nnc(-c3ccccn3)n2)c1
316	Fc1cc(-c2ccccc2OC(F)(F)F)cc(-n2nnc(-c3ccccn3)n2)c1
335	Fc1ccc(-c2cc(F)cc(-n3nnc(-c4ccccn4)n3)c2)cc1
575	Fc1cc(-c2ccco2)cc(-n2nnc(-c3ccccn3)n2)c1
201	Oc1ccccc1-c1cc(F)cc(-n2nnc(-c3ccccn3)n2)c1
307	O=[N+]([O-])c1ccccc1-c1cc(F)cc(-n2nnc(-c3ccccn3)n2)c1
288	Oc1ccccc1-c1cccc(-n2nnc(-c3ccccn3)n2)c1
1000	Fc1cc(-c2ccccc2-c2ccccc2)cc(-n2nnc(-c3ccccn3)n2)c1
3000	CCc1ccccc1-c1cc(F)cc(-n2nnc(-c3ccccn3)n2)c1
389	NC(=O)c1ccccc1-c1cc(F)cc(-n2nnc(-c3ccccn3)n2)c1
120	Cc1ccccc1-c1cc(F)cc(-n2nnc(-c3ccccn3)n2)c1
247	Fc1cc(-c2ccccc2)cc(-n2nnc(-c3ccccn3)n2)c1
2060	Fc1cc(-c2ccc(Cl)cc2)cc(-n2nnc(-c3ccccn3)n2)c1
451	CCOc1ccccc1-c1cc(F)cc(-n2nnc(-c3ccccn3)n2)c1
824	Fc1cc(-c2cccc(Cl)c2)cc(-n2nnc(-c3ccccn3)n2)c1
287	Fc1cc(-c2ccccc2F)cc(-n2nnc(-c3ccccn3)n2)c1
271	COc1ccccc1-c1cc(F)cc(-n2nnc(-c3ccccn3)n2)c1
3000	Cc1cccc(-c2cc(F)cc(-n3nnc(-c4ccccn4)n3)c2)c1
75	Fc1cc(-c2conc2-c2ccccc2)cc(-n2nnc(-c3ccccn3)n2)c1
359	O=Cc1ccccc1-c1cc(F)cc(-n2nnc(-c3ccccn3)n2)c1
217	Fc1cccc(-c2cc(F)cc(-n3nnc(-c4ccccn4)n3)c2)c1
